Test results from patent publication US11879140B2, “P21 mRNA targeting DNAzymes” (1E Therapeutics Ltd., priority 2020, dated 2024).
Entries after “also recorded” stand apart in the source; their conditions may differ.

Columns and labels:
[1] = DNAzyme stability analysis in BALF; assay type: in vitro ADME, mice
Method: DNAzyme stability was assessed by incubation with PBS, plasma and BALF (Bronchoalveolar Lavage Fluid). A comparison between unmodified and 3′Inverted dT modification was made. Following incubation for the indicated time points, samples were analyzed using gel electrophoresis. Quantification compared to time 0 was performed using Image Lab software (Bio Rad).

HepG2 cells = test: Chemotherapy and DNAzyme combination, HepG2; assay type: cell-based
From the text: (§1) PANC-1 cells were maintained in DMEM medium supplemented with 10% fetal bovine serum, 1% penicillin-streptomycin and 1% sodium pyruvate. HCT116 cells were maintained in McCoy's 5A medium supplemented with 10% fetal bovine serum and 1% penicillin-streptomycin. A549 cells were maintained in F-12K Medium supplemented with 10% fetal bovine serum and 1% penicillin-streptomycin. HepG2 cell were maintained Eagle's Minimum Essential Medium, supplemented in 10% fetal bovine serum, 1% penicillin-streptomycin and 1% sodium pyruvate. All cancer cell lines were incubated in 5% C02 at 37° C.
(§2) Cancer cell lines were seeded in 96 well plates 24 hours before treatment. Chemotherapies were applied at indicated concentrations either alone or as combination with DNAzyme-lipofectamine complex. 72 hours following treatment, cell viability was measured using Prestoblue® reagent. Chemotherapies were diluted in cell medium to the indicated concentrations. 24 hours following seeding, culture medium was replaced with chemotherapy containing medium, immediately followed by transfection of DNAzyme as described above. 72 hours following treatment, cell viability was measured using Prestoblue® reagent.
The following chemotherapies were used: Etoposide (Sigma), Palbociclib (Sigma), Doxorubicin (Sigma), Cisplatin (Sigma), ABT-263 (Selleckchem). All compounds were dissolved and stored according to manufacturer instructions.

p21 protein [2] = test: p21 protein in HepG2 cell lysate (IF and ELISA); assay type: cell-based, human; settings: Etoposide alone or with scramble or DNAzyme 1670 (FIGS. 15B-C)
Method: p21 protein quantification was analyzed using (Human p21 ELISA Kit—ab214658, Abcam), according to the manufacturer's instructions. The cell pellets were incubated with Cell Extraction Buffer PTR on ice for 20 minutes. Following Centrifuge at 18,000×g for 20 minutes, the sample protein concentrations were quantified using a BCA protein assay. The samples and Antibody Cocktail were added to appropriate wells and incubated for one hour at room temperature (RT), followed by three washes with Wash Buffer and incubation with TMB Development Solution for 15 minutes at RT. Then, the Stop Solution was added, the samples were incubated for 1 minute, and the samples were read by absorbance at 450 nm using plate reader.

p21 mRNA = test: Quantitative RT-PCR of p21 mRNA in senescent cells; assay type: cell-based, human; settings: over 24 hours following treatment, 2000 nM (FIG. 5D)
Method: Total RNA was extracted from IMR-90 cells using NucleoSpin® RNA (Macherey-Nagel™), according to the manufacturer protocol. Complementary DNA was prepared using the M-MLV Reverse Transcriptase (Promega), according to the manufacturer protocol. Quantitative real-time PCR was performed using the SYBR Green PCR master-mix (Applied Biosystems) on a CFX96 Real-Time PCR System (Bio Rad). See primer sequences in Table 1, above.

cancer cells (A549) = test: Dose response on A549 cancer cells; assay type: cell-based; settings: A549, scramble versus DNAzyme 1670 (FIG. 16B)
From the text: as §1, §2

p21 protein [3] = test: Immunofluorescence of p21 protein in senescent cells; assay type: cell-based, human; settings: 48 hour treatment, 1000 nM, compared to control scramble (FIG. 5G)
Method: 48 hours following transfection. IMR-90 cells were fixed by PFA 4% following the indicated treatments. Cells were blocked and incubated with antibodies against human p21 (CST) in blocking solution. Cells were then incubated with Dylight-549-conjugated secondary antibody (Jackson ImmunoResearch) and counterstained with DAPI (Sigma). Images were acquired using Nikon Eclipse Ti2 microscope at ×10 magnification.
(§3) Alternatively, cells were fixed with 4% Formaldehyde for 15 minutes, permeabilized in 0.2% […] for 5 minutes and blocked with 2% bovine serum albumin (BSA) for 30 min in room temperature. Cells were then incubated with a primary or with a conjugated antibody over-night or for 3 hours respectively. For unconjugated antibodies, a corresponding fluorescently-labelled secondary antibody was added for 1 hour, followed by Hoechst counterstaining. Cells were washed with PBS three times following each step. Images were acquired using Nikon Eclipse Ti2 microscope at ×10 magnification.
(§4) Antibodies were diluted in blocking solution as indicated below: 53BP1 antibody (Novus biologicals NB100-304, 1:800), Phospho-histone H2AX antibody (Cell signaling #2577, 1:800), p21 Waf1/Cip1 antibody (Cell signaling #8865, 1:500), p16 antibody (Santa Cruz sc-56330, 1:200), Alexa Fluor-488 goat anti mouse (Thermo Fisher A11029, 1:1000).

p21 protein [4] = test: p21 protein staining in HepG2 cells; assay type: cell-based, human; settings: Etoposide alone or together with DNAzyme (FIGS. 15A-B)
Method: as §3, §4

## DNAzyme 1670: SEQ ID NO: 54: GGGAAAGGAggctagctacaacgaAAGGGGGAG (DNA GGGAAAGGAGGCTAGCTACAACGAAAGGGGGAG; DNA, backbone and methylation of C not given here)
[1]; FIG. 13C
  stability in BALF of diseased (bleomycin) mice compared to naive BALF: lower
[1]; unmodified DNAzyme, from the start of incubation (FIG. 13A)
  start of reduction in size (below full length) in BALF: 24 h
[1]; with 3′ inverted dT modification versus unmodified (FIGS. 7B, 13C)
  time to degradation / stability in BALF: significantly increased
HepG2 cells; HepG2 (FIG. 12G)
  sub-clinical doses of various chemotherapies in combination with DNAzyme, synergy: synergistic activity
HepG2 cells; liver cancer cell line HepG2 (FIG. 12F)
  combination treatment of Etoposide and DNAzyme, synergy: good synergistic results
p21 protein [2]
  p21 protein in cell lysate: can counteract the upregulation in p21 levels
p21 mRNA
  p21 mRNA knockdown: 57%
Cancer cells (A549)
  senolytic effect, dose response: senolytic effect in a wide range of doses; also recorded: effective at much lower concentration
p21 protein [3]
  p21 protein levels: significantly reduced
p21 protein [4]
  p21 protein immunofluorescent staining in HepG2 cells: significant decrease in staining; also recorded: p21 upregulation is blocked
